Measured values: the supplement of paper PMC10307832

Legend:
Test in all cases: relative viability (nuclei count vs DMSO), 5 days (fraction); higher = more cells survive
[1] = tested on: EPLC-272H
Summary of the method: (§1)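 Each reported value is a median over duplicate plates. It expresses relative viability: treated-well nuclei count divided by vehicle-well nuclei count. Lung cancer cell lines in 1536-well plates were dosed by pin tool a day after seeding, alone with one drug or with a fixed anchor-drug dose plus five library-drug doses (not always all listed) in √10 steps, and nuclei were counted after 5 days.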

[2] = tested on: NCI-H2405
Summary of the method: as §1

[3] = tested on: NCI-H1975
Summary of the method: as §1

[4] = tested on: LCLC-97TM1
Summary of the method: as §1

[5] = tested on: NCI-H520
Summary of the method: as §1

[6] = tested on: CAL-12T
Summary of the method: as §1

[7] = tested on: NCI-H1563
Summary of the method: as §1

[8] = tested on: NCI-H1792
Summary of the method: as §1

[9] = tested on: NCI-H838
Summary of the method: as §1

[10] = tested on: A-427
Summary of the method: as §1

[11] = tested on: NCI-H1915
Summary of the method: as §1

[12] = tested on: LC-2-ad
Summary of the method: as §1

[13] = tested on: UMC-11
Summary of the method: as §1

[14] = tested on: SW 1573
Summary of the method: as §1

[15] = tested on: HCC-15
Summary of the method: as §1

[16] = tested on: NCI-H2023
Summary of the method: as §1

[17] = tested on: HCC-44
Summary of the method: as §1

[18] = tested on: COR-L 105
Summary of the method: as §1

[19] = tested on: NCI-H2347
Summary of the method: as §1

[20] = tested on: NCI-H1734
Summary of the method: as §1

## CCNC(=O)c1noc(-c2cc(C(C)C)c(O)cc2O)c1-c1ccc(CN2CCOCC2)cc1 [Luminespib] + C[C@@H](Oc1cc(-c2cnn(C3CCNCC3)c2)cnc1N)c1c(Cl)ccc(F)c1Cl [Crizotinib] (partner 1 µM)
[1]; first compound 0.006325 µM
  relative viability: 0.892
[1]; first compound 0.02 µM
  relative viability: 0.655
[1]; first compound 0.06325 µM
  relative viability: 0.88
[1]; first compound 0.2 µM
  relative viability: 0.917
[2]; first compound 0.002 µM
  relative viability: 0.829
[2]; first compound 0.006325 µM
  relative viability: 0.644
[2]; first compound 0.02 µM
  relative viability: 0.705
[2]; first compound 0.06325 µM
  relative viability: 0.615
[2]; first compound 0.2 µM
  relative viability: 0.257
[3]; first compound 0.002 µM
  relative viability: 0.975
[3]; first compound 0.006325 µM
  relative viability: 0.99
[3]; first compound 0.02 µM
  relative viability: 0.763
[3]; first compound 0.06325 µM
  relative viability: 0.147
[3]; first compound 0.2 µM
  relative viability: 0.15
[4]; first compound 0.002 µM
  relative viability: 0.417
[4]; first compound 0.006325 µM
  relative viability: 0.461
[4]; first compound 0.02 µM
  relative viability: 0.157
[4]; first compound 0.06325 µM
  relative viability: 0.221
[4]; first compound 0.2 µM
  relative viability: 0.22
[5]; first compound 0.002 µM
  relative viability: 0.831
[5]; first compound 0.006325 µM
  relative viability: 0.976
[5]; first compound 0.02 µM
  relative viability: 0.845
[5]; first compound 0.06325 µM
  relative viability: 0.0957
[5]; first compound 0.2 µM
  relative viability: 0.0995
[6]; first compound 0.002 µM
  relative viability: 0.7
[6]; first compound 0.006325 µM
  relative viability: 0.635
[6]; first compound 0.02 µM
  relative viability: 0.636
[6]; first compound 0.06325 µM
  relative viability: 0.06
[6]; first compound 0.2 µM
  relative viability: 0.0967
[7]; first compound 0.002 µM
  relative viability: 0.937
[7]; first compound 0.006325 µM
  relative viability: 0.834
[7]; first compound 0.02 µM
  relative viability: 0.811
[7]; first compound 0.06325 µM
  relative viability: 0.473
[7]; first compound 0.2 µM
  relative viability: 0.536
[8]; first compound 0.002 µM
  relative viability: 0.981
[8]; first compound 0.006325 µM
  relative viability: 0.906
[8]; first compound 0.02 µM
  relative viability: 0.955
[8]; first compound 0.06325 µM
  relative viability: 0.435
[8]; first compound 0.2 µM
  relative viability: 0.119
[9]; first compound 0.002 µM
  relative viability: 0.947
[9]; first compound 0.006325 µM
  relative viability: 0.78
[9]; first compound 0.02 µM
  relative viability: 0.755
[9]; first compound 0.06325 µM
  relative viability: 0.285
[9]; first compound 0.2 µM
  relative viability: 0.101
[10]; first compound 0.002 µM
  relative viability: 1.09
[10]; first compound 0.006325 µM
  relative viability: 0.796
[10]; first compound 0.02 µM
  relative viability: 0.955
[10]; first compound 0.06325 µM
  relative viability: 0.873
[10]; first compound 0.2 µM
  relative viability: 0.835
[11]; first compound 0.002 µM
  relative viability: 0.952
[11]; first compound 0.006325 µM
  relative viability: 0.897
[11]; first compound 0.02 µM
  relative viability: 0.958
[11]; first compound 0.06325 µM
  relative viability: 0.904
[11]; first compound 0.2 µM
  relative viability: 0.851
[12]; first compound 0.002 µM
  relative viability: 0.48
[12]; first compound 0.006325 µM
  relative viability: 0.482
[12]; first compound 0.06325 µM
  relative viability: 0.289
[12]; first compound 0.2 µM
  relative viability: 0.262
[13]; first compound 0.002 µM
  relative viability: 0.606
[13]; first compound 0.006325 µM
  relative viability: 0.584
[13]; first compound 0.02 µM
  relative viability: 0.682
[13]; first compound 0.06325 µM
  relative viability: 0.156
[13]; first compound 0.2 µM
  relative viability: 0.107
[14]; first compound 0.002 µM
  relative viability: 0.833
[14]; first compound 0.006325 µM
  relative viability: 0.853
[14]; first compound 0.02 µM
  relative viability: 0.757
[14]; first compound 0.06325 µM
  relative viability: 0.191
[14]; first compound 0.2 µM
  relative viability: 0.0946
[15]; first compound 0.002 µM
  relative viability: 0.836
[15]; first compound 0.006325 µM
  relative viability: 0.863
[15]; first compound 0.02 µM
  relative viability: 0.901
[15]; first compound 0.06325 µM
  relative viability: 0.473
[15]; first compound 0.2 µM
  relative viability: 0.412
[16]; first compound 0.002 µM
  relative viability: 0.772
[16]; first compound 0.006325 µM
  relative viability: 0.586
[16]; first compound 0.02 µM
  relative viability: 0.569
[16]; first compound 0.06325 µM
  relative viability: 0.0759
[16]; first compound 0.2 µM
  relative viability: 0.0557
[17]; first compound 0.002 µM
  relative viability: 0.843
[17]; first compound 0.006325 µM
  relative viability: 0.768
[17]; first compound 0.02 µM
  relative viability: 1
[17]; first compound 0.06325 µM
  relative viability: 0.12
[17]; first compound 0.2 µM
  relative viability: 0.091
[18]; first compound 0.002 µM
  relative viability: 0.996
[18]; first compound 0.006325 µM
  relative viability: 0.897
[18]; first compound 0.02 µM
  relative viability: 0.976
[18]; first compound 0.06325 µM
  relative viability: 0.165
[18]; first compound 0.2 µM
  relative viability: 0.224
[19]; first compound 0.002 µM
  relative viability: 0.701
[19]; first compound 0.02 µM
  relative viability: 0.625
[19]; first compound 0.06325 µM
  relative viability: 0.315
[19]; first compound 0.2 µM
  relative viability: 0.311
[20]; first compound 0.002 µM
  relative viability: 0.77
[20]; first compound 0.006325 µM
  relative viability: 0.612
[20]; first compound 0.02 µM
  relative viability: 0.566
[20]; first compound 0.06325 µM
  relative viability: 0.135
[20]; first compound 0.2 µM
  relative viability: 0.0997
